Laboratory results: article PMC11530130, “Peripherally restricted PICK1 inhibitor mPD5 ameliorates pain behaviors in murine inflammatory and neuropathic pain models” (JCI Insight, 2024)
“And” between values parts separate entries of the source, which are not always exact repeats. Equal entries are not always repeated.

Assays:
[1] = Plasma exposure after repeated s.c. administration (10 + 2 + 2 + 2 + 2 μmol/kg), LC-MS/MS; type: in vivo, mouse; conditions: for Plasma exposure, Fig 7B, individual mice: 10µmol/kg repeated
Experimental: Assessment of plasma levels and biodistribution of mPD5.
The mPD5 plasma exposure was determined by (WuXI AppTec (Shanghai, China)) and done following s.c. injection of three male C57BL/6N (vendor: VTLH) mice (7-9 weeks old, fasted) with each concentration of mPD5 (2, 10 and 50 µmol/kg) in sterile PBS. Blood samples were taken 30 min, 1 hour, 2 hours, 5 hours, and 12 hours following injection. For the repeated administration experiment, the initial s.c. injection of 10 µmol/kg was followed by 4 s.c. administrations of 2 µmol/kg with one hour between injections. Following the last injection, blood samples (0.03 mL from saphenous vein or other suitable site) were collected in EDTA- […]
K2 tubes at 5 min, 30 min, 1 hour, 5 hours, 12 hours, 24 hours, and 48 hours and centrifuged (app 4 ℃, 3200 g, 10 min) for collection of plasma. Plasma was transferred to 96 well plates and quick-frozen over dry ice and kept at -60 ℃ until LC-MS/MS analysis. For LC-MS/MS analysis plasma with 0.25% Triton X100 in 50% MeOH/water (6 µL) was quenched with 160 µL of IS1 (internal standard in MeOH (Labetalol & tolbutamide & Verapamil & dexamethasone & glyburide & Celecoxib 100 ng/mL for each)) and the mixture was vortexed for 10 min at 800 rpm and centrifuged for 15 min at 3220 × g at 4 ℃. An aliquot of 65 µL supernatant was transferred to a clean 96-well plate and centrifuged for 5 min at 3220 × g at 4 ℃, then the supernatant was directly injected for LC-MS/MS analysis. Plasma half-lives were determined from three points in the elimination phase. […]

[2] = test system: mice, spared nerve injury (SNI) model; experiment: SNI model of neuropathic pain, von Frey, single s.c. dose, male mice day 7; type: in vivo, mouse
Experimental: Induction of neuropathic pain (SNI model).
The initial SNI pain experiment (Figure 4A) was performed by Phenotype Expertise, Marseilles, France – Pain and CNS behaviour CRO under supervision of Stéphane Gaillard, PhD (CEO). Surgery was performed on 8-week-old C57BL/6J male mice (Charles River). The spared nerve injury surgery was performed on anaesthetized mice with a buprenorphine […]
solution (0.05 mg/kg) injected s.c. 30 min before surgery (10 μL/g). For surgery, mice were anaesthetised with ketamine (100 mg/kg, i.p.) and xylazine (10 mg/kg, i.p.) (volume 10 µL/g) with 100 μL of 1% xylocaine solution infiltrated at the site of the incision. The distal trifurcation of the sciatic nerve was identified, and the tibial and common peroneal branches were ligated with polypropylene nonabsorbable 6-0 sutures (Ethicon) and 1 mm was cut out, leaving the sural branch intact. The wound was closed with sutures, and the animals were allowed to recover and returned to their cages. Two subcutaneous injections of buprenorphine (0.05 mg/kg) were performed with an 8 to 12 hours delay decreasing pain due to the surgery […]
The remaining SNI pain experiments were performed in-house using the following procedure.
SNI surgery was performed on the left hindleg of C57BL/6J male and female mice (Janvier, France) under 2% isoflurane anaesthesia. Skin on the lateral surface was incised between hip and knee followed by lengthwise division of the biceps femoris muscle leading to exposure of the three branches of the sciatic nerve. Sural branch was left intact, while the peroneal and tibial branches were ligated with a single surgical knot and axotomized distally of the ligation.
Wounds were closed with surgical glue or medical clips and animals were monitored daily for signs of stress or discomfort, but in all cases recovered uneventfully.
Induction of Diabetic neuropathy (STZ model).
Diabetes was induced by a single i.p. injection of […] streptozocin (STZ) solution (100 μL/10 g, Sigma-Aldrich S0130, batch #WXBB7152V) in male seven-week-old C57BL/6J (Charles River) mice. Glycemia was tested before, and seven days after injection. All injected mice had blood glucose concentration >350 mg/dL from day seven and were used for analgesic testing of the compounds from day 14. One mouse had to be euthanized at seven days post injection. This experiment was performed by Phenotype Expertise, Marseilles, France - Pain and CNS behaviour CRO under supervision of Stéphane Gaillard, PhD (CEO).
Induction of cancer induced bone pain (CIBP model).
Osteosarcoma cell line NCTC 2472 (American Type Culture Collection, CCL-11TM) was cultured for two weeks prior to surgery in NCTC-135 medium (Sigma-Aldrich, Denmark) supplemented with sodium hydrogen carbonate and 10% equine serum (Sigma-Aldrich, Denmark). On the day of surgery, cells were washed with PBS and incubated with 3 mL trypsin-EDTA for five min followed by centrifugation (2800 rpm, 3 min). Supernatant was removed, and cell pellet resuspended in PBS to obtain a cell density of 10^7 cells/mL.
Two separate cohorts of female C3H/HeNHsd mice (Envigo, Netherlands) of 7-8 weeks, were anaesthetized with 6.25 mg/kg xylazine (Rompun vet, 20 mg/mL, Bayer, KVP Pharma + Veterinär Produkte GmbH, Germany, Batch: KV02BHF) and 43.75 mg/kg ketamine (Ketaminol vet, 100 mg/mL, MSD Animal Health, AN Boxmeer, The Netherlands, Batch:
A140A01) and received 1.0-1.2% isoflurane (1000 mg/g isoflurane, Attane vet, ScanVet, Piramal Critical Care Ltd., UK, Batch: G123J18B) during surgery. The mouse was placed on a 37 °C heating pad. Both hind legs were shaved, and a small horizontal incision was made under the knee followed by a vertical incision of approximately 0.5 cm until the patellar tendon was exposed. The patellar tendon was moved to the lateral side exposing the distal epiphysis of the femur. A hole was made in the middle of the distal epiphysis by gently pushing a 30 G needle (0.3x12 mm, 30 Gx1/2”, Luer-Lock, CHIRANA T. Injecta, CH30012) through the bone […]
while rotating. […]

CCCCCCCCCCCCCC(=O)N(CCOCCOCCC(=O)N[C@@H](Cc1c[nH]cn1)C(=O)N[C@@H](Cc1c[nH]c2ccccc12)C(=O)N[C@@H](CC(C)C)C(=O)N[C@@H](CCCCN)C(=O)N[C@H](C(=O)O)C(C)C)CCOCCOCCC(=O)N[C@@H](Cc1c[nH]cn1)C(=O)N[C@@H](Cc1c[nH]c2ccccc12)C(=O)N[C@@H](CC(C)C)C(=O)N[C@@H](CCCCN)C(=O)N[C@H](C(=O)O)C(C)C [mPD5, myristoyl-NPEG4-(HWLKV)2]
Plasma exposure, Fig 7B, individual mice ([1]; time 0.5): 3149 and 2827 and 2358
Plasma exposure, Fig 7B, individual mice ([1]; time 1): 3071 and 3116 and 2251
Plasma exposure, Fig 7B, individual mice ([1]; time 5): 8.66 and 8.95 and 4.61
half-life ([1]; C57BL/6N, mouse, plasma, sc, s.c. 10 μmol/kg followed by 4 x 2 μmol/kg in 1-hour intervals): 31.2 ± 1.2 min
effect on mechanical hypersensitivity (PWT) ([2]; SNI day 7, male mice, s.c. 2 μmol/kg): no significant effect
duration of significant reduction of mechanical hypersensitivity ([2]; SNI day 7, male mice, s.c. 10 μmol/kg): up to 3 hours
von Frey paw withdrawal threshold, individual animals (Fig 5B) ([2]; dose group 2, contra, BL): 2 and 1.4 (4×) and 1
von Frey paw withdrawal threshold, individual animals (Fig 5B) ([2]; dose group 2, contra, time 0): 1.4 (2×) and 1 (4×)
von Frey paw withdrawal threshold, individual animals (Fig 5B) ([2]; dose group 2, contra, time 1): 1
von Frey paw withdrawal threshold, individual animals (Fig 5B) ([2]; dose group 2, injured side, BL): 2 (2×) and 1.4 (4×)
von Frey paw withdrawal threshold, individual animals (Fig 5B) ([2]; dose group 2, injured side, time 0): 0.07 (2×) and 0.16 (3×) and 0.4
von Frey paw withdrawal threshold, individual animals (Fig 5B) ([2]; dose group 2, injured side, time 1): 0.6 (2×) and 1 (3×) and 1.4
von Frey paw withdrawal threshold, individual animals (Fig 5B) ([2]; dose group 10, contra, BL): 1.4 (5×) and 1
von Frey paw withdrawal threshold, individual animals (Fig 5B) ([2]; dose group 10, contra, time 0): 1 (4×) and 1.4 (2×)
von Frey paw withdrawal threshold, individual animals (Fig 5B) ([2]; dose group 10, contra, time 1): 1 (3×) and 1.4 (3×)
von Frey paw withdrawal threshold, individual animals (Fig 5B) ([2]; dose group 10, injured side, BL): 1.4 (5×) and 1
von Frey paw withdrawal threshold, individual animals (Fig 5B) ([2]; dose group 10, injured side, time 0): 0.16 (2×) and 0.07 (3×) and 0.4
von Frey paw withdrawal threshold, individual animals (Fig 5B) ([2]; dose group 10, injured side, time 1): 1.4 (2×) and 1
von Frey paw withdrawal threshold, individual animals (Fig 5B) ([2]; dose group 50, contra, BL): 1.4 (4×) and 1 (2×)
von Frey paw withdrawal threshold, individual animals (Fig 5B) ([2]; dose group 50, contra, time 0): 1.4 (3×) and 1 (3×)
von Frey paw withdrawal threshold, individual animals (Fig 5B) ([2]; dose group 50, contra, time 1): 1.4 (4×) and 1 (2×)
von Frey paw withdrawal threshold, individual animals (Fig 5B) ([2]; dose group 50, injured side, BL): 1.4 (5×) and 1
von Frey paw withdrawal threshold, individual animals (Fig 5B) ([2]; dose group 50, injured side, time 0): 0.07 (2×) and 0.16 (2×) and 0.4 (2×)
von Frey paw withdrawal threshold, individual animals (Fig 5B) ([2]; dose group 50, injured side, time 1): 1 (3×) and 1.4 (2×) and 2
